Data taken from US11957687B2 (REGENERON PHARMACEUTICALS, INC., priority 2019, dated 2024).

Columns and labels:
HSD17B13 = HSD17B13 (Homo sapiens (Human), UniProt Q7Z5P4); experiment: HSD17B13 enzymatic inhibition assay (150 nM or 50 nM HSD17B13); format: biochemical; conditions: 50 nM HSD17B13; read-out: Inhibition of 50 nM of HSD17B13 IC50
HSD17B1 = HSD17B1 (Homo sapiens (Human), UniProt P14061); experiment: HSD17B1 enzymatic blocking assay; format: biochemical; conditions: 25 μM Estradiol, 500 μM NAD; read-out: Inhibition of HSD17B1 IC50
Outline: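 Activity followed as NADH formed on estradiol oxidation, read by NADH-Glo luminescence after 1 h detection in the dark at room temperature. Compounds preincubated with enzyme 30 min at room temperature; 0.5% DMSO and no-substrate controls. IC50 fitted from luminescence.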

HSD17B2 = HSD17B2 (Homo sapiens (Human), UniProt P37059); experiment: HSD17B2 enzymatic blocking assay; format: biochemical; conditions: 1.8 μM Estradiol, 650 μM NAD; read-out: Inhibition of HSD17B2 IC50
Outline: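 Mammalian-expressed enzyme at 2 ng/μL in 50 mM Tris-HCl pH 7.5 with detergents/BSA, preincubated 15 min at 20° C. with compound (10-point titration). Reaction with 1.8 μM estradiol and 650 μM NAD ran 45 min at 20° C.; NADH measured by NADH-Glo luminescence and IC50 derived.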

[1] = Microsome stability assay, human liver microsomes; format: in vitro ADME; conditions: 1 μM compound, 0.5 mg/mL microsomal protein
Outline: (§1)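 Compound at 1 μM incubated at 37° C with pooled human or mouse liver microsomes (0.5 mg/mL protein) plus NADPH regenerating system, sampled at 0–60 min; a 60-min no-NADPH incubation also included. Single replicate; LC/MS/MS disappearance from analyte/internal standard peak area ratios, without standard curve.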

HSD17B10 = HSD17B10 (Homo sapiens (Human), UniProt Q99714); experiment: HSD17B10 enzymatic blocking assay; format: biochemical; conditions: 25 μM Estradiol, 500 μM NAD; read-out: Inhibition of HSD17B10 IC50
Protocol: To screen compounds of the disclosure for their ability to block HSD17B10 function, an enzymatic blocking assay was performed. For the assay, HSD17B10 activity was measured by detecting NADH formation from oxidation of Estradiol using a NADH Glo luminescence assay (Promega, #Cat. No. G9062). Compounds of the disclosure were evaluated in a dose titration assay where the compounds were titrated at 10-point dose curve using an Echo-555 liquid handling dispenser. HSD17B10 (Seq. ID NO: 5, expressed in mammalian cells) was added at a final concentration of 31.25 ng/well in a buffer containing 0.2M Tris-HCl, pH 7.5, into a low volume white 384-well assay plate. Compounds were incubated with the enzyme for 30 minutes at room temperature. The assay reaction was then initiated by addition of 25 μM Estradiol substrate (Sigma, catalog #E2758-250MG, CAS: 50-28-2) and 500 μM NAD co-factor, and the reaction mixture was incubated for 3 hours at room temperature. DMSO at a concentration of 0.5% was used as a negative control and a ‘no substrate’ control was used a positive control in the assay. Detection reagent was then added as per manufacturer's instructions, and the plate was subsequently incubated in the dark for 1 hour at room temperature, NADH generated was detected in the luminescence mode on the Envision Perkin Elmer plate reader. The IC50 values were determined using Dotmatics analysis software.

[2] = Microsome stability assay, mouse liver microsomes; format: in vitro ADME; conditions: 1 μM compound, 0.5 mg/mL microsomal protein; for microsomal CLint at 1 h, 1 µM / half-life at 1 h, 1 µM / microsomal CLint at 1 μM / half-life at 1 μM: mouse, mouse liver microsomes, pooled, NADPH, 37° C.; for microsomal CLint at 1 h, 1 µM / microsomal CLint at 1 μM: read-out: Microsome Stability Mouse liver microsomes Cl; for half-life at 1 h, 1 µM / half-life at 1 μM: read-out: Microsome Stability Mouse liver microsomes T½
Outline: as §1

HSD17B4 = HSD17B4 (Homo sapiens (Human), UniProt P51659); experiment: HSD17B4 enzymatic blocking assay; format: biochemical; conditions: 23.46 μM Estradiol, 1500 μM NAD; read-out: Inhibition of HSD17B4 IC50
Protocol: To screen compounds of the disclosure for their ability to block HSD17B4 function, an enzymatic blocking assay was performed. For the assay, HSD17B4 activity was measured by detecting NADH formation from oxidation of Estradiol using a NADH Glo luminescence assay (Promega, #Cat. No. G9062). Compounds of the disclosure were evaluated in a dose titration assay where the compounds were titrated at 10-point dose curve using an Echo-555 liquid handling dispenser. HSD17B4 (SEQ ID NO: 4, expressed in mammalian cells) was added at a final concentration of 2.5 ng/μL in a buffer containing 50 mM Tris-HCl, pH 7.5, Pluronic F-127 0.05%, Tween20 0.01%, BSA 0.01%, into a low volume white 384-well assay plate. Compounds were incubated with the enzyme for 15 min at 20° C. The assay reaction was then initiated by addition of 23.46 μM Estradiol substrate (Sigma, catalog #E2758-250MG, CAS: 50-28-2) and 1500 μM NAD co-factor, and the reaction mixture was incubated for 45 min at 20° C. DMSO at a concentration of 0.5% was used as a negative control and a ‘no substrate’ control was used a positive control in the assay. Detection reagent was then added as per manufacturer's instructions, and the plate was subsequently incubated in the dark for 1 hour at room temperature, NADH generated was detected in the luminescence mode on the Envision Perkin Elmer plate reader. The IC50 values were determined using Dotmatics analysis software.

[3] = human, human liver microsomes, pooled, NADPH, 37° C., read-out: Microsome Stability Human liver microsomes Cl
[4] = human, human liver microsomes, pooled, NADPH, 37° C., read-out: Microsome Stability Human liver microsomes T½

Sequence of HSD17B1 (P14061 other isoform, or with tags, fused parts or gaps): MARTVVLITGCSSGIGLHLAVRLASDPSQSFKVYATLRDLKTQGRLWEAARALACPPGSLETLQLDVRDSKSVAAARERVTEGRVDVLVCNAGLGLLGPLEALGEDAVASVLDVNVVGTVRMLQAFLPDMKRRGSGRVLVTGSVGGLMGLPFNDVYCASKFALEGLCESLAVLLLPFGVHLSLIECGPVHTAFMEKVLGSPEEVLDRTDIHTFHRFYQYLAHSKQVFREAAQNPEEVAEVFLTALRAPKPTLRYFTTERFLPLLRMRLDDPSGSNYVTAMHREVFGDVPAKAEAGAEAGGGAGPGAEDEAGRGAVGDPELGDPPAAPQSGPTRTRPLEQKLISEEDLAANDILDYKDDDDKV
Sequence of HSD17B4 (P51659 other isoform, or with tags, fused parts or gaps): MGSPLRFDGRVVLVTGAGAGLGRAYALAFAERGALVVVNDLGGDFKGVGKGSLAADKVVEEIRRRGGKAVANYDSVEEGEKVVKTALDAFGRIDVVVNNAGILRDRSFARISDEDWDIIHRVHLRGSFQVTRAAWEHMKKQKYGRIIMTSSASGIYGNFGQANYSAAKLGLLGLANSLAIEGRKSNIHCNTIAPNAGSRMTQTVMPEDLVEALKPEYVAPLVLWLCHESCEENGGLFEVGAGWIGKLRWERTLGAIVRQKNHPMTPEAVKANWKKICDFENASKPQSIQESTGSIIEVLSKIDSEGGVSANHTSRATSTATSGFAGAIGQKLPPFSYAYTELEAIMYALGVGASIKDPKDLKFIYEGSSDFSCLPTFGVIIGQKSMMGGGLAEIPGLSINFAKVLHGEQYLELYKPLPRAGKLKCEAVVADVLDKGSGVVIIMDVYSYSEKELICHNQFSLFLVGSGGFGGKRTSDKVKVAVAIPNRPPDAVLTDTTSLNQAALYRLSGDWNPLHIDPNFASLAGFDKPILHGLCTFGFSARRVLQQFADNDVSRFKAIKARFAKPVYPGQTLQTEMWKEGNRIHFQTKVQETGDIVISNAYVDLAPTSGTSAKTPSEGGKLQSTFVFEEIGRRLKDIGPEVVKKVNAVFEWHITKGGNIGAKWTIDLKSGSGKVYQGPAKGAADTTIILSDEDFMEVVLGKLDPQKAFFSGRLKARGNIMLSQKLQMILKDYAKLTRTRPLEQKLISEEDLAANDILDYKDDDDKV
Sequence of HSD17B2 (P37059 other isoform, or with tags, fused parts or gaps): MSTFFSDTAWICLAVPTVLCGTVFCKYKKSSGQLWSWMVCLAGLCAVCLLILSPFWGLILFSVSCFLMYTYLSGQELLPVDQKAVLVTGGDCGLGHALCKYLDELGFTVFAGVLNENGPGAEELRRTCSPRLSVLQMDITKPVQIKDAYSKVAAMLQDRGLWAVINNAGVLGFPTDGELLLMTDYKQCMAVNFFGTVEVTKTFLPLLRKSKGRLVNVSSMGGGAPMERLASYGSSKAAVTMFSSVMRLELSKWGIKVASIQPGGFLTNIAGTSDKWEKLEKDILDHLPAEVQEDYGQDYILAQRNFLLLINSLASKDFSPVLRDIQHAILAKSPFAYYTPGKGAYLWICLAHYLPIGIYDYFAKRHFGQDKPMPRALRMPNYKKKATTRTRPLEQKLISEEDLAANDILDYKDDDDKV
Sequence of HSD17B13 (Q7Z5P4 other isoform, or with tags, fused parts or gaps): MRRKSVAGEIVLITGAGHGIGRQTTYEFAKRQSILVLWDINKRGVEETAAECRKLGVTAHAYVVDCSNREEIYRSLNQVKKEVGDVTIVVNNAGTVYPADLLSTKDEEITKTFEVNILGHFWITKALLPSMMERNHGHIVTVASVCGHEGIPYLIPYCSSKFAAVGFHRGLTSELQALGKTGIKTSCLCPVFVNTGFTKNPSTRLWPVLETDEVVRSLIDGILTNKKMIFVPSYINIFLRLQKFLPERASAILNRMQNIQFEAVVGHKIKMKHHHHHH
Sequence of HSD17B10 (Q99714 other isoform, or with tags, fused parts or gaps): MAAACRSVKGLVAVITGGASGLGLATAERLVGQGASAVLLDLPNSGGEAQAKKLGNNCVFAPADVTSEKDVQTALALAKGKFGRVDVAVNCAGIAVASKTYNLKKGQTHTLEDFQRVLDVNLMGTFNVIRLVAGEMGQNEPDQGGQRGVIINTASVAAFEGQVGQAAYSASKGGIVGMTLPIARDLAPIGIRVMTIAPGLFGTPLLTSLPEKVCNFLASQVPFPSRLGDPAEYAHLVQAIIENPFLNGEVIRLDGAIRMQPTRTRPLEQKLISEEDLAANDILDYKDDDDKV

IC50 (HSD17B13) [µM] | IC50 (HSD17B1) [µM] | IC50 (HSD17B2) [µM] | Microsome Stability Human liver microsomes % Remaining @60 min [1] [%] | microsomal CLint at 1 h, 1 µM [1, 3] [µL/min/mg] | half-life at 1 h, 1 µM [1, 4] [h] | IC50 (HSD17B10) [µM] | Microsome Stability Mouse liver microsomes % Remaining @60 min [2] [%] | microsomal CLint at 1 h, 1 µM [2] [µL/min/mg] | half-life at 1 h, 1 µM [2] [h] | IC50 (HSD17B4) [µM] | microsomal CLint at 1 μM [1, 3] [µL/min/mg] | half-life at 1 μM [1, 4] [h] | microsomal CLint at 1 μM [2] [µL/min/mg] | half-life at 1 μM [2] [h] | Compound
0.23 | 4.55 | 8.71 | 44.00 | 23 | 1 | > 30 | 73.50 | 10.4 | 2.22 | > 100 |  |  |  |  | O=C(NC1c2ccc(Cl)cc2Oc2cccc(Cl)c21)c1ccc(C(F)(F)F)[nH]c1=O (centres unmarked) [Compound 51, N-(1,6-dichloro-9H-xanthen-9-yl)-2-oxo-6-(trifluoromethyl)-1,2-dihydropyridine-3-carboxamide]
0.08 | 5.84 | 8.69 | 110.00 |  |  | > 30 | 125.00 |  |  | > 100 | < 9.6 | > 2.42 | < 9.6 | > 2.42 | Cc1ccc2c(c1)Oc1cc(C)ccc1C2NC(=O)c1ccc(C(F)(F)F)[nH]c1=O [Compound 52, N-(3,6-dimethyl-9H-xanthen-9-yl)-2-oxo-6-(trifluoromethyl)-1,2-dihydropyridine-3-carboxamide]
0.02 | 2.07 | 16.1 | 72.40 | 17.8 | 1.3 | > 30 | 97.40 |  |  | > 100 |  |  | < 9.6 | > 2.42 | Cc1ccc2c(c1)Oc1cc(Cl)ccc1C2NC(=O)c1ccc(C(F)(F)F)[nH]c1=O (centres unmarked) [Compound 138, N-(3-chloro-6-methyl-9H-xanthen-9-yl)-2-oxo-6-(trifluoromethyl)-1,2-dihydropyridine-3-carboxamide]
0.09 | 3.2 | 8.71 | 0.62 | 172 | 0.135 | > 30 | 59.10 | 17.4 | 1.33 | 84.5 |  |  |  |  | Cc1ccc2c(c1)Oc1cccc(Cl)c1C2NC(=O)c1ccc(C(F)(F)F)[nH]c1=O (centres unmarked) [Compound 190, N-(1-chloro-6-methyl-9H-xanthen-9-yl)-2-oxo-6-(trifluoromethyl)-1,2-dihydropyridine-3-carboxamide]
